These are literature values, as cited in patent US20090022706A1, “SUBSTITUTED CYCLOHEXENES” (Auspex Pharmaceuticals, Inc., priority 2007, published 2009).

Each structure is given as a SMILES string.

In data set [1] the test system is Toll-Like Receptor 4 (TLR4)-mediated cytokine production. To be noted: under pro-inflammatory conditions.
Data set [2] has as its system nitric oxide (NO) production.

For `CCOC(=O)C1=CCCC[C@H]1S(=O)(=O)Nc1ccc(F)cc1Cl` [TAK-242, (R)-6-(2-chloro-4-fluoro-phenylsulfamoyl)-cyclohex-1-enecarboxylic acid ethyl ester], the “production of various cytokines, such as IL-1β, IL-6, IL-12, and TNF-α” value in data set [1] is recorded as “inhibits”. Moreover, in data set [2], the “in vitro production of nitric oxide (NO)” value is “inhibits”.
